Series [1] has as its system Pseudomonas aeruginosa ATCC 27853. Nature of the series: Minimum inhibitory concentration (MIC), spotting on Müeller–Hinton agar. Type of series: cell-based. Conditions: Gram − Ve; P. aeruginosa; 37 °C, 18 h.
The test system of a further series is CT-DNA-EB adduct. Nature of the series: Fluorescence competitive displacement of ethidium bromide from CT-DNA. Particulars: for CT-DNA-EB-Complex Ksv (M^−1) × 10^4: Stern–Volmer quenching constant, EB displacement, 25 °C; for CT-DNA-EB-Complex Kq (M^−1S^−1) × 10^12: bimolecular quenching constant, Ksv = Kqτo, τo 10^−8 s; for CT-DNA-EB-Complex Kbin (M^−1) × 10^5: binding constant from double-logarithmic plot. The class given is binding, calf. The essentials: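 CT-DNA (15 µM) was pre-equilibrated 30 min with ethidium bromide (15 µM) in phosphate buffer pH 7.2, then titrated with complexes (0–20 µM) at 8-min intervals at room temperature. EB emission was recorded at 530–700 nm (excitation 525 nm, 25 °C), and quenching was analysed by Stern–Volmer to give Ksv and Kq (τo taken as 10^−8 s).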

The target of series [2] is bovine serum albumin (BSA) (Bos taurus, UniProt P02769). Description: Albumin binding by absorption spectroscopy titration.
Sequence of bovine serum albumin (BSA) (P02769 25-607): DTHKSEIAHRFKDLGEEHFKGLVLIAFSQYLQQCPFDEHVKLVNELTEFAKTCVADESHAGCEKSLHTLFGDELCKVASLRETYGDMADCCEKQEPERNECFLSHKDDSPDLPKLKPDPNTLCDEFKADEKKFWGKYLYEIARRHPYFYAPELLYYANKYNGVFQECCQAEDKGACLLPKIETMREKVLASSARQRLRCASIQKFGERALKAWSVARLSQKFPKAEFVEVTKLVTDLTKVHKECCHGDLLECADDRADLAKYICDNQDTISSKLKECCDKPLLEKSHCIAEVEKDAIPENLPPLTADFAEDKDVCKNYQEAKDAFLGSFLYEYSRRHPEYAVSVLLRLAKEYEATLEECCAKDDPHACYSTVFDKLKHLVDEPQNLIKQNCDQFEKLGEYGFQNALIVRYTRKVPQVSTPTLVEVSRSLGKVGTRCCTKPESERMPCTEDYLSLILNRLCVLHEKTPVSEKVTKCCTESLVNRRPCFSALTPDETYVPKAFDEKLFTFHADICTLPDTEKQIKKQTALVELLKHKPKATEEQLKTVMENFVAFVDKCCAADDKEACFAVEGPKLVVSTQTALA

Consider `[Ag+].[O-][Cl+3]([O-])([O-])[O-].c1ccc2nc(-c3nc4ccccc4s3)ccc2c1.c1ccc2nc(-c3nc4ccccc4s3)ccc2c1` [Complex Q7, [Ag(L2)2]ClO4], for which, in series [1], the “Minimum inhibitory concentration, PA” value was 0.2 µg/mL. Also, in the series on CT-DNA-EB adduct, the “CT-DNA-EB-Complex Ksv (M^−1) × 10^4” value was 3.96 (M^−1) × 10^4, the “CT-DNA-EB-Complex Kq (M^−1S^−1) × 10^12” value is 3.96 (M^−1S^−1) × 10^12 and the “CT-DNA-EB-Complex Kbin (M^−1) × 10^5” value is recorded as 1.29 (M^−1) × 10^5. Also, the “Protein-Complex Kb (M^−1) × 10^4” value in series [2] is listed as 9.38 (M^−1) × 10^4.

As to `Cc1ccc(N=Cc2ccc3ccccc3n2)cc1.Cc1ccc(N=Cc2ccc3ccccc3n2)cc1.[Ag+].[O-][Cl+3]([O-])([O-])[O-]` [Complex Q9, [Ag(L4)2]ClO4], in the series with CT-DNA-EB adduct, the “CT-DNA-EB-Complex Ksv (M^−1) × 10^4” value is 2.49 (M^−1) × 10^4, the “CT-DNA-EB-Complex Kq (M^−1S^−1) × 10^12” value is 2.49 (M^−1S^−1) × 10^12 and the “CT-DNA-EB-Complex Kbin (M^−1) × 10^5” value is listed as 6.53 (M^−1) × 10^5. In series [2], the “Protein-Complex Kb (M^−1) × 10^4” value is on record as 5.43 (M^−1) × 10^4.

The values above are taken from paper PMC7956476, “Quinoline Functionalized Schiff Base Silver (I) Complexes: Interactions with Biomolecules and In Vitro Cytotoxicity, Antioxidant and Antimicrobial Activities” (Molecules, 2021).
